Source: ChEMBL document CHEMBL4507286 (2021)
Calls of active or inactive are those of the source.

What was measured:
[1] = molecular target: D(3) dopamine receptor (Homo sapiens) (UniProt P35462); conditions: Compound concentration 10.0 uM
[2] = molecular target: Phosphatidylinositol 4,5-bisphosphate 3-kinase catalytic subunit beta isoform (Homo sapiens) (UniProt P42338)
[3] = molecular target: D(1B) dopamine receptor (Homo sapiens) (UniProt P21918); conditions: Compound concentration 10.0 uM
[4] = molecular target: Mitogen-activated protein kinase kinase kinase 6 (Homo sapiens) (UniProt O95382)
[5] = molecular target: Serine/threonine-protein kinase PAK 2 (Homo sapiens) (UniProt Q13177)
[6] = molecular target: Myosin-IIIa (Homo sapiens) (UniProt Q8NEV4)
[7] = molecular target: 5-hydroxytryptamine receptor 2C (Homo sapiens) (UniProt P28335); conditions: Compound concentration 10.0 uM
[8] = test system: Proto-oncogene tyrosine-protein kinase receptor Ret (Homo sapiens), P07949 [V804M]
[9] = molecular target: Ribosomal protein S6 kinase alpha-4 (Homo sapiens) (UniProt O75676)
[10] = molecular target: Tyrosine-protein kinase ABL1 (Homo sapiens) (UniProt P00519)
[11] = molecular target: D(4) dopamine receptor (Homo sapiens) (UniProt P21917); conditions: Compound concentration 10.0 uM
[12] = molecular target: Mitogen-activated protein kinase kinase kinase kinase 5 (Homo sapiens) (UniProt Q9Y4K4)
[13] = test system: Receptor-type tyrosine-protein kinase FLT3 (Homo sapiens), P36888 [D835V]
[14] = test system: Tyrosine-protein kinase ABL1 (Homo sapiens), P00519 [F317L]
[15] = molecular target: Mitogen-activated protein kinase 14 (Homo sapiens) (UniProt Q16539)
[16] = molecular target: Tyrosine-protein kinase JAK1 (Homo sapiens) (UniProt P23458)
[17] = molecular target: Serine/threonine-protein kinase 32C (Homo sapiens) (UniProt Q86UX6)
[18] = molecular target: Activin receptor type-1 (Homo sapiens) (UniProt Q04771)
[19] = molecular target: Serine/threonine-protein kinase Nek9 (Homo sapiens) (UniProt Q8TD19)
[20] = molecular target: Serine/threonine-protein kinase 26 (Homo sapiens, UniProt Q9P289)
[21] = test system: Epidermal growth factor receptor (Homo sapiens), P00533 [UNDEFINED MUTATION]
[22] = test system: Phosphatidylinositol 4,5-bisphosphate 3-kinase catalytic subunit alpha isoform (Homo sapiens), P42336 [M1043I]
[23] = molecular target: Phosphatidylinositol 5-phosphate 4-kinase type-2 beta (Homo sapiens) (UniProt P78356)
[24] = molecular target: NUAK family SNF1-like kinase 2 (Homo sapiens) (UniProt Q9H093)
[25] = molecular target: Mast/stem cell growth factor receptor Kit (Homo sapiens) (UniProt P10721)
[26] = molecular target: Testis-specific serine/threonine-protein kinase 3 (Homo sapiens) (UniProt Q96PN8)
[27] = molecular target: BDNF/NT-3 growth factors receptor (Homo sapiens) (UniProt Q16620)
[28] = molecular target: Serine/threonine-protein kinase PLK1 (Homo sapiens) (UniProt P53350)
[29] = molecular target: Death-associated protein kinase 3 (Homo sapiens) (UniProt O43293)
[30] = test system: Epidermal growth factor receptor (Homo sapiens), P00533 [UNDEFINED MUTATION]; remark: listed apart in the source
[31] = molecular target: 5-hydroxytryptamine receptor 3A (Homo sapiens) (UniProt P46098); conditions: Compound concentration 10.0 uM
[32] = molecular target: Serine/threonine-protein kinase Nek6 (Homo sapiens) (UniProt Q9HC98)
[33] = molecular target: Insulin receptor-related protein (Homo sapiens) (UniProt P14616)
[34] = molecular target: Cyclin-dependent kinase 2 homolog (Plasmodium falciparum (isolate 3D7)) (UniProt P61075)
[35] = molecular target: Calcium-dependent protein kinase 1 (Plasmodium falciparum) (UniProt P62344)
[36] = molecular target: Phosphatidylinositol 4-phosphate 5-kinase type-1 alpha (Homo sapiens) (UniProt Q99755)
[37] = molecular target: Receptor tyrosine-protein kinase erbB-3 (Homo sapiens) (UniProt P21860)
[38] = molecular target: Dual specificity mitogen-activated protein kinase kinase 7 (Homo sapiens) (UniProt O14733)
[39] = molecular target: Cytoplasmic tyrosine-protein kinase BMX (Homo sapiens) (UniProt P51813)
[40] = molecular target: Serine/threonine-protein kinase ICK (Homo sapiens) (UniProt Q9UPZ9)
[41] = molecular target: Serine/threonine-protein kinase N1 (Homo sapiens) (UniProt Q16512)
[42] = molecular target: Mitogen-activated protein kinase 1 (Homo sapiens, UniProt P28482); experiment: ERK Biochemical Assay
[43] = molecular target: Tyrosine-protein kinase ABL2 (Homo sapiens) (UniProt P42684)
[44] = molecular target: Mitogen-activated protein kinase kinase kinase 3 (Homo sapiens) (UniProt Q99759)
[45] = molecular target: Alpha-1A adrenergic receptor (Homo sapiens) (UniProt P35348); conditions: Compound concentration 10.0 uM
[46] = Compound concentration 1000.0 nM
[47] = Compound concentration 100.0 nM

Sequence of Epidermal growth factor receptor (Homo sapiens), P00533 [UNDEFINED MUTATION] (P00533 whole entry, looked up, stated change not applied, canonical isoform): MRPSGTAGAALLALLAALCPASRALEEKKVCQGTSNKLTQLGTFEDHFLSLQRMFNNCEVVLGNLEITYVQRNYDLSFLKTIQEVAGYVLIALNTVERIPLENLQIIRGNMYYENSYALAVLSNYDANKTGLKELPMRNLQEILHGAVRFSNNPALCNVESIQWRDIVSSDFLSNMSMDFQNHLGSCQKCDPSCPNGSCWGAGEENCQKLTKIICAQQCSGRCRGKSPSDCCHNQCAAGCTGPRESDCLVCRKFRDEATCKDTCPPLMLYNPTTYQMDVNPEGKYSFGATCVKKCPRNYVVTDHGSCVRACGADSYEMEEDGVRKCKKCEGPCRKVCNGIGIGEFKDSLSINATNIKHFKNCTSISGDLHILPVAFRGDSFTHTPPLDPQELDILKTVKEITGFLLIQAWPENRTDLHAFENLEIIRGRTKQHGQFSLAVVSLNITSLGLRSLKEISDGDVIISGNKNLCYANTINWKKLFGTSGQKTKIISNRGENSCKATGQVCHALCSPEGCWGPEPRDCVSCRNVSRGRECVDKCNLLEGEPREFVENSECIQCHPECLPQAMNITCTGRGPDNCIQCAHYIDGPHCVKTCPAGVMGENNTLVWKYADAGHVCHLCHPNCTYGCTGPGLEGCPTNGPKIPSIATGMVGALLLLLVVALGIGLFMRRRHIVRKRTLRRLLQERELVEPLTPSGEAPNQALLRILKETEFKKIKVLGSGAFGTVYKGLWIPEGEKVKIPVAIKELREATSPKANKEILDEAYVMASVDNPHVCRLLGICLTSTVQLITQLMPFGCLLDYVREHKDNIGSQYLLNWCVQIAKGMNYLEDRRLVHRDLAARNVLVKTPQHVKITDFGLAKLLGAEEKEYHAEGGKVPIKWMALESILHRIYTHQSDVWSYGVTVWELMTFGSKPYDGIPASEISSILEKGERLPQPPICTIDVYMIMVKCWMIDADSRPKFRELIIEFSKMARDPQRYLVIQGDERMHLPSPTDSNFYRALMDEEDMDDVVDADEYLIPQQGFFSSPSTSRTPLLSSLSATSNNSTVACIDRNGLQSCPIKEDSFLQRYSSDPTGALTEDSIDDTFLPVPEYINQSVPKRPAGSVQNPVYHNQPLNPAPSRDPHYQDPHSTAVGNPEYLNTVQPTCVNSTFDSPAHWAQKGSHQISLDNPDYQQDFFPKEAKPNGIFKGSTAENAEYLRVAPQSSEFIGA
Sequence of Alpha-1A adrenergic receptor (Homo sapiens) (P35348 whole entry): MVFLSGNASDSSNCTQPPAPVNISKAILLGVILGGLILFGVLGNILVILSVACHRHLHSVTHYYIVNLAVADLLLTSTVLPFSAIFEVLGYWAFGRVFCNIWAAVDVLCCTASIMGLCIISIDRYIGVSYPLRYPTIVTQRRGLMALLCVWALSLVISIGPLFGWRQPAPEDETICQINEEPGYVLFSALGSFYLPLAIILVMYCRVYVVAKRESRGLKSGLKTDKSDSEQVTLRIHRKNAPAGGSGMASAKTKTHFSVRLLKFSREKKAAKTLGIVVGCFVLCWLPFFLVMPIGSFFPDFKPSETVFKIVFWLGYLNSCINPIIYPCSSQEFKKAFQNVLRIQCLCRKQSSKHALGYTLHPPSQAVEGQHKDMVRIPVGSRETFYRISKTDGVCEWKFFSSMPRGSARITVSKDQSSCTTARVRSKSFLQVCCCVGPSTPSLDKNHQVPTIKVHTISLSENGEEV
Sequence of Tyrosine-protein kinase ABL2 (Homo sapiens) (P42684 whole entry): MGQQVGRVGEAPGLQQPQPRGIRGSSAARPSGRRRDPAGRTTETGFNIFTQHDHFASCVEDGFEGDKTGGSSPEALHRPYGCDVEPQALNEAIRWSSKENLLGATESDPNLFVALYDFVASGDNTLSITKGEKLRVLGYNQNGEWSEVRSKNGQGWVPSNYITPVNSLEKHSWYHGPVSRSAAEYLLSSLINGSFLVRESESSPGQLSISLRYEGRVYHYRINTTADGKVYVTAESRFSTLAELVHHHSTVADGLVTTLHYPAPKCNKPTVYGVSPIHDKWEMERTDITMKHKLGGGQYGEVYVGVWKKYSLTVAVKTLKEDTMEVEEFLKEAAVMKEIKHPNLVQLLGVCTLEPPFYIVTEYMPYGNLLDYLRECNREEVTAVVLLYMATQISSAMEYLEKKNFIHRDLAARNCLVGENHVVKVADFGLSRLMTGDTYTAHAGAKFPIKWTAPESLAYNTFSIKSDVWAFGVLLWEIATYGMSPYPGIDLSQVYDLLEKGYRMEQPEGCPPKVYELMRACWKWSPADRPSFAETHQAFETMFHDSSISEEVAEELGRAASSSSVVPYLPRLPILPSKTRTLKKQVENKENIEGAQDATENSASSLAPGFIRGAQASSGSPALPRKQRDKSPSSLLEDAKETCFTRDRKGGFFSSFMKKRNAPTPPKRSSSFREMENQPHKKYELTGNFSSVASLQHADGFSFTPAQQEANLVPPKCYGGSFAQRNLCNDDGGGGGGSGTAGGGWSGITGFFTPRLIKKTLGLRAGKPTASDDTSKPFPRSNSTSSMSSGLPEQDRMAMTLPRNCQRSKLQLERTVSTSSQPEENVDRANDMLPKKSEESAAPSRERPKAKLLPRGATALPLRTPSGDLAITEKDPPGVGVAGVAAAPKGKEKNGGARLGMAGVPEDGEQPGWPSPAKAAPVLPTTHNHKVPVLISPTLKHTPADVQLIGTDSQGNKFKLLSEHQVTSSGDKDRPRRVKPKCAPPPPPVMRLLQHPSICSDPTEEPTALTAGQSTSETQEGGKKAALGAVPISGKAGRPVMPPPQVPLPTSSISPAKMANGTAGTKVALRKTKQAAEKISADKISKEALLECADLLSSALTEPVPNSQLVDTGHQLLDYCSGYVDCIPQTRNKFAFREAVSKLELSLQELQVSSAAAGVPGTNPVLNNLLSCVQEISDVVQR
Sequence of Serine/threonine-protein kinase 32C (Homo sapiens) (Q86UX6 whole entry): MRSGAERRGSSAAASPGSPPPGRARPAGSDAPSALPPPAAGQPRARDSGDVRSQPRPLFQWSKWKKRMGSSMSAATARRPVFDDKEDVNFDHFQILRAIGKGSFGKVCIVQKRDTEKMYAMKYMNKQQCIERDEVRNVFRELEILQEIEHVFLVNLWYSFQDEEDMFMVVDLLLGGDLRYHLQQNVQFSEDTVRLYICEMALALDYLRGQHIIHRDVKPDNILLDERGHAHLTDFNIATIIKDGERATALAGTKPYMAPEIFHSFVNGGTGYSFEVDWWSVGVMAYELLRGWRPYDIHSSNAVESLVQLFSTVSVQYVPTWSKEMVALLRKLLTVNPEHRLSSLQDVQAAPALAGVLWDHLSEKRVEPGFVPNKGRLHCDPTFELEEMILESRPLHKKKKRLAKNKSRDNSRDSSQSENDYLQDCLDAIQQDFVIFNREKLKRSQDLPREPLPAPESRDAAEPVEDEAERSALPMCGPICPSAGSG
Sequence of Mitogen-activated protein kinase kinase kinase kinase 5 (Homo sapiens) (Q9Y4K4 whole entry, looked up): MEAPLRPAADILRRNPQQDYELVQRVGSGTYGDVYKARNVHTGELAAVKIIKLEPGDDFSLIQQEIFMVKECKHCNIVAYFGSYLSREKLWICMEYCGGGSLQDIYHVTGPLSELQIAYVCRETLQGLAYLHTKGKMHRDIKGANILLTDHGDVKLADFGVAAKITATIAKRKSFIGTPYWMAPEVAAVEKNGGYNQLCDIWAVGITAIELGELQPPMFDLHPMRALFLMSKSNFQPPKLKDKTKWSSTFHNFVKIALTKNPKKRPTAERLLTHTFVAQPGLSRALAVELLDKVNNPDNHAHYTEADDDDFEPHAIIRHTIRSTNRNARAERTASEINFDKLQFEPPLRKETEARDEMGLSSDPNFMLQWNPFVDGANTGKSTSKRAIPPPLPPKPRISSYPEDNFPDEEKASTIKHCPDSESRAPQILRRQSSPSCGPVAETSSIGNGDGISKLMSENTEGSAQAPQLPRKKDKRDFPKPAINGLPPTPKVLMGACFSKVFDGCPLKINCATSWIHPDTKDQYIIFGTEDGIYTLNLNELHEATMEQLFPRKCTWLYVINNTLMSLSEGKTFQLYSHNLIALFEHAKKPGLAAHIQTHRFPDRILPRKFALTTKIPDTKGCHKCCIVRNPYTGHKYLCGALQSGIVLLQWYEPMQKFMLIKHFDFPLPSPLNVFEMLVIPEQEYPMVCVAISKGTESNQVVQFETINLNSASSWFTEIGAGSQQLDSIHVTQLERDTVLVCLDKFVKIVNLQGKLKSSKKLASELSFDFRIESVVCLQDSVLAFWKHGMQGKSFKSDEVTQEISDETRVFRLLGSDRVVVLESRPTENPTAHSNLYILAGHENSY
Sequence of Activin receptor type-1 (Homo sapiens) (Q04771 whole entry): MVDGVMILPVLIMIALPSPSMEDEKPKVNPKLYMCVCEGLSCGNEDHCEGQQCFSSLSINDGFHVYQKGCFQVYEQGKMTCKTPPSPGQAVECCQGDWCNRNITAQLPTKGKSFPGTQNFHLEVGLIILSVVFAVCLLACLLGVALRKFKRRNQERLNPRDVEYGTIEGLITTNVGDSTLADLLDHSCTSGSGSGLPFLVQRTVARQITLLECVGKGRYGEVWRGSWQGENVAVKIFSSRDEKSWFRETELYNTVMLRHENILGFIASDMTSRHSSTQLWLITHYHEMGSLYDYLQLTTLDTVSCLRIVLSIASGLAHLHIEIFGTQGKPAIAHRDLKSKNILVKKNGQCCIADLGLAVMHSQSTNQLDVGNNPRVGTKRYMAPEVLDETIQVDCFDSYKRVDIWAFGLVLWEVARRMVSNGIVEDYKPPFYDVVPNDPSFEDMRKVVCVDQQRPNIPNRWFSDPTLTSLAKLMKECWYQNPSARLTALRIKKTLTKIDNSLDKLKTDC
Sequence of Mitogen-activated protein kinase 1 (P28482 whole entry): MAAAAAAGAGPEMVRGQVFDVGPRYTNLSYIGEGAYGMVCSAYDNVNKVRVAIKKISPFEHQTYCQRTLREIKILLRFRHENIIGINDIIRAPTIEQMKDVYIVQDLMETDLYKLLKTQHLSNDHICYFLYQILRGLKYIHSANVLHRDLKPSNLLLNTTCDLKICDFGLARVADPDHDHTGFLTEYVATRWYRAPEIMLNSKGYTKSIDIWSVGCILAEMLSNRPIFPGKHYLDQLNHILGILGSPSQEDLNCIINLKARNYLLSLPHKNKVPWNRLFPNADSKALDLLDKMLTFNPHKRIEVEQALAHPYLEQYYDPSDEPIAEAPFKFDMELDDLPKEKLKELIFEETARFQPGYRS

C[C@H](NC(=O)Nc1cc2[nH]ncc2c(CO)n1)c1ccccn1 [ERKi-NC]
1780 nM (not active): IC50 [42]
inactive: inhibition [1] 27.9% | residual activity [2, 46] 100% | inhibition [3] 7.55% | residual activity [4, 46] 67.4% | residual activity [5, 46] 94.3% | residual activity [6, 46] 100% | inhibition [7] 13.6% | residual activity [8, 46] 81.7% | residual activity [9, 46] 100% | residual activity [10, 46] 72.8% | inhibition [11] 16.6% | residual activity [12, 46] 99.6% | residual activity [13, 46] 88% | residual activity [14, 46] 91.9% | residual activity [15, 46] 100% | residual activity [16, 46] 100% | residual activity [17, 46] 74% | residual activity [18, 46] 81.8% | residual activity [19, 46] 100% | residual activity [20, 46] 100% | residual activity [21, 46] 100% | residual activity [23, 46] 99.5% | residual activity [24, 46] 100% | residual activity [25, 46] 71.5% | residual activity [26, 46] 100% | residual activity [27, 46] 68.5% | residual activity [28, 46] 92.1% | residual activity [29, 46] 100% | residual activity [30, 46] 86.6% | inhibition [31] -0.282% | residual activity [32, 46] 100% | residual activity [33, 46] 100% | residual activity [34, 46] 91.1% | residual activity [35, 46] 77.4% | residual activity [36, 46] 100% | residual activity [37, 46] 60.6% | residual activity [38, 46] 94.1% | residual activity [39, 46] 91.7% | residual activity [40, 46] 71.4% | residual activity [41, 46] 93.1% | residual activity [43, 46] 100% | residual activity [44, 46] 100% | inhibition [45] -8.5%
active: residual activity [22, 46] 37.7%

C[C@@H](NC(=O)Nc1cc2[nH]ncc2c(CO)n1)c1ccccc1 [ERKi]
inactive: inhibition [1] -2.24% | residual activity [2, 47] 81.5% | inhibition [3] 21.1% | residual activity [4, 47] 99.3% | residual activity [5, 47] 86.3% | residual activity [6, 47] 100% | inhibition [7] 26.3% | residual activity [8, 47] 100% | residual activity [9, 47] 94.5% | residual activity [10, 47] 87% | inhibition [11] -1% | residual activity [12, 47] 86.8% | residual activity [13, 47] 95.2% | residual activity [14, 47] 82.1% | residual activity [15, 47] 100% | residual activity [16, 47] 91.2% | residual activity [17, 47] 100% | residual activity [18, 47] 98.3% | residual activity [19, 47] 77.5% | residual activity [20, 47] 94.9% | residual activity [21, 47] 88.7% | residual activity [22, 47] 100% | residual activity [24, 47] 76% | residual activity [25, 47] 89.5% | residual activity [26, 47] 91.1% | residual activity [27, 47] 63.6% | residual activity [28, 47] 58.4% | residual activity [29, 47] 77.4% | residual activity [30, 47] 72.6% | inhibition [31] 4.36% | residual activity [32, 47] 98.9% | residual activity [33, 47] 82.9% | residual activity [34, 47] 80.1% | residual activity [35, 47] 82.9% | residual activity [36, 47] 84.5% | residual activity [37, 47] 99% | residual activity [38, 47] 89.4% | residual activity [39, 47] 94.3% | residual activity [40, 47] 80.9% | residual activity [41, 47] 89.3% | residual activity [43, 47] 83.9% | residual activity [44, 47] 82.1% | inhibition [45] 16.1%
active: residual activity [23, 47] 45% | IC50 [42] 1.8 nM
